Experiments:
[1] = target: T1, BTK (Homo sapiens, UniProt Q06187); assay: Cell Degradation: BTK degradation in TMD-8 cells, HTRF assay; assay type: cell-based; conditions: 6 h treatment, IC50 (DC50) of BTK degradation
T1 construct: High control=Cell group with added DMSO and without compound, indicating microplate readings without BTK degradation; endogenous in cells; host or cells: TMD-8 cells
Summary of the method: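 BTK levels read by HTRF (665 vs 620 nm) in lysates of TMD-8 cells after 6 h compound exposure (eight doses, 6-fold steps, 0.2% DMSO). Percent degradation relative to controls; four-parameter curve fitting gave DC50, with Dmax the top degradation.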

[2] = test system: HEK-293 cells; assay: HEK-293 Cytotoxicity Assay (CellTiter-Glo); assay type: cell-based; conditions: Homo sapiens, HEK293, 72 h incubation, CellTiter-Glo luminescence
Summary of the method: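 Four-parameter fit of % inhibition gives IC50, from CellTiter-Glo luminescent viability read-out. Cells exposed for 72 h to an 8-point, 4-fold series at 0.2% DMSO.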

T1 sequence (Q06187 whole entry): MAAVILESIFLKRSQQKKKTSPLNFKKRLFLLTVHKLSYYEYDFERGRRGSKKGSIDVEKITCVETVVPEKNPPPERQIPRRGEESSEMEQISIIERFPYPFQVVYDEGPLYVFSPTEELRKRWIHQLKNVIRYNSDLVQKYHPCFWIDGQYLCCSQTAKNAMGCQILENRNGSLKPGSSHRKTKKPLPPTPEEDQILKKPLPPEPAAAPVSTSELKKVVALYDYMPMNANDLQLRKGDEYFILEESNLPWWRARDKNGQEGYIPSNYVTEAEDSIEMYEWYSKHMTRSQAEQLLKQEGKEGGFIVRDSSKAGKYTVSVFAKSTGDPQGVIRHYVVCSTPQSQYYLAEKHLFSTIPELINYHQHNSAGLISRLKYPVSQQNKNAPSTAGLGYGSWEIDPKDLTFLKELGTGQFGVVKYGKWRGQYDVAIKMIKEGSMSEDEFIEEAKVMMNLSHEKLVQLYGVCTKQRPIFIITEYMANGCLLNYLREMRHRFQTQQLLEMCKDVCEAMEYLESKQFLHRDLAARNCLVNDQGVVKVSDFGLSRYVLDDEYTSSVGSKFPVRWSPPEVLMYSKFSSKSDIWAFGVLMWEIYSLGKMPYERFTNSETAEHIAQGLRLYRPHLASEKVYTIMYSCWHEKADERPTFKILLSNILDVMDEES

DC50 [1]	Compound	IC50 [2]
0.27 nM	Cc1cc(N2CCC(CN3CCN(c4ccc(-c5cc6c(-c7ccc([C@@H](C)NC(=O)c8noc(C(C)(C)C)n8)c(CO)c7)ncnc6[nH]5)cn4)CC3)CC2)ccc1N1CCC(=O)NC1=O [Example 145, (R)-5-(tert-butyl)-N-(1-(4-(6-(6-(4-((1-(4-(2,4-dioxotetrahydropyrimidin-1(2H)-yl)-3-methylphenyl)piperidin-4-yl)methyl)piperazin-1-yl)pyridin-3-yl)-7H-pyrrolo[2,3-d]pyrimidin-4-yl)-2-(hydroxymethyl)phenyl)ethyl)-1,2,4-oxadiazole-3-carboxamide]	> 10000 nM
> 2000 nM	Cc1cc(-c2ncnc3[nH]c(-c4ccc(N5CCN(CC6CCN(c7ccc(N8CCC(=O)N(C)C8=O)cc7)CC6)CC5)nc4)cc23)ccc1[C@@H](C)NC(=O)c1nc(C(C)(C)C)no1 [Example 146, (R)-3-(tert-butyl)-N-(1-(2-methyl-4-(6-(6-(4-((1-(4-(3-methyl-2,4-dioxotetrahydropyrimidin-1(2H)-yl)phenyl)piperidin-4-yl)methyl)piperazin-1-yl)pyridin-3-yl)-7H-pyrrolo[2,3-d]pyrimidin-4-yl)phenyl)ethyl)-1,2,4-oxadiazole-5-carboxamide]	> 10000 nM
52.7 nM	Cc1cc(-c2ncnc3[nH]c(-c4ccc(N5CCN(CC6CCN(c7ccc(N8CCC(=O)NC8=O)cc7)CC6)CC5)cn4)cc23)ccc1[C@H](C)NC(=O)c1nc(C(C)(C)C)no1 [Example 147, (S)-3-(tert-butyl)-N-(1-(4-(6-(5-(4-((1-(4-(2,4-dioxotetrahydropyrimidin-1(2H)-yl)phenyl)piperidin-4-yl)methyl)piperazin-1-yl)pyridin-2-yl)-7H-pyrrolo[2,3-d]pyrimidin-4-yl)-2-methylphenyl)ethyl)-1,2,4-oxadiazole-5-carboxamide]	> 10000 nM
134 nM	Cc1cc(-c2ncnc3[nH]c(-c4ccc(N5CCN(CC6CCN(c7ccc(N8CCC(=O)NC8=O)cc7)CC6)CC5)nc4)cc23)ccc1[C@H](C)NC(=O)c1nc(C(C)(C)C)no1 [Example 148, (S)-3-(tert-butyl)-N-(1-(4-(6-(6-(4-((1-(4-(2,4-dioxotetrahydropyrimidin-1(2H)-yl)phenyl)piperidin-4-yl)methyl)piperazin-1-yl)pyridin-3-yl)-7H-pyrrolo[2,3-d]pyrimidin-4-yl)-2-methylphenyl)ethyl)-1,2,4-oxadiazole-5-carboxamide]	278 nM
0.27 nM	Cc1nn(C2CCN(CC3CCN(c4ccc(N5CCC(=O)NC5=O)cc4)CC3)CC2)c(C)c1-c1cc2c(-c3cc(CO)c([C@@H](C)NC(=O)c4noc(C(C)(C)C)n4)cc3F)ncnc2[nH]1 [Example 149, (R)-5-(tert-butyl)-N-(1-(4-(6-(1-(1-((1-(4-(2,4-dioxotetrahydropyrimidin-1(2H)-yl)phenyl)piperidin-4-yl)methyl)piperidin-4-yl)-3,5-dimethyl-1H-pyrazol-4-yl)-7H-pyrrolo[2,3-d]pyrimidin-4-yl)-5-fluoro-2-(hydroxymethyl)phenyl)ethyl)-1,2,4-oxadiazole-3-carboxamide]	> 10000 nM
1.64 nM	CC(C)(C)c1noc(C(=O)N[C@@H]2CCc3cc(-c4ncnc5[nH]c(-c6ccc(N7CCN(CC8CCN(c9ccc(N%10CCC(=O)NC%10=O)cc9)CC8)CC7)cn6)cc45)ccc32)n1 [Example 150, (R)-3-(tert-butyl)-N-(5-(6-(5-(4-((1-(4-(2,4-dioxotetrahydropyrimidin-1(2H)-yl)phenyl)piperidin-4-yl)methyl)piperazin-1-yl)pyridin-2-yl)-7H-pyrrolo[2,3-d]pyrimidin-4-yl)-2,3-dihydro-1H-inden-1-yl)-1,2,4-oxadiazole-5-carboxamide]	> 10000 nM
3.24 nM	CC(C)(C)c1noc(C(=O)N[C@@H]2CCc3cc(-c4ncnc5[nH]c(-c6ccc(N7CCN(CC8CCN(c9ccc(N%10CCC(=O)NC%10=O)cc9)CC8)CC7)nc6)cc45)ccc32)n1 [Example 151, (R)-3-(tert-butyl)-N-(5-(6-(6-(4-((1-(4-(2,4-dioxotetrahydropyrimidin-1(2H)-yl)phenyl)piperidin-4-yl)methyl)piperazin-1-yl)pyridin-3-yl)-7H-pyrrolo[2,3-d]pyrimidin-4-yl)-2,3-dihydro-1H-inden-1-yl)-1,2,4-oxadiazole-5-carboxamide]	> 10000 nM
> 2000 nM	Cc1cc(-c2ncnc3[nH]c(-n4nc(C)c(C5CCN(CC6CCN(c7ccc(N8CCC(=O)NC8=O)cc7)CC6)CC5)c4C)cc23)ccc1[C@@H](C)NC(=O)c1nc(C(C)(C)C)no1 [Example 152, (R)-3-(tert-butyl)-N-(1-(4-(6-(4-(1-((1-(4-(2,4-dioxotetrahydropyrimidin-1(2H)-yl)phenyl)piperidin-4-yl)methyl)piperidin-4-yl)-3,5-dimethyl-1H-pyrazol-1-yl)-7H-pyrrolo[2,3-d]pyrimidin-4-yl)-2-methylphenyl)ethyl)-1,2,4-oxadiazole-5-carboxamide]	2460 nM
2.02 nM	Cc1cc(-c2ncnc3[nH]c(-c4ccc(N5CCN(C6CC(c7ccc(C8CCC(=O)NC8=O)cc7)C6)CC5)cc4)cc23)ccc1[C@@H](C)NC(=O)c1nc(C(C)(C)C)no1 (stereo partly drawn) [Example 153, 3-(tert-butyl)-N-((1R)-1-(4-(6-(4-(4-(3-(4-(2,6-dioxopiperidin-3-yl)phenyl)cyclobutyl)piperazin-1-yl)phenyl)-7H-pyrrolo[2,3-d]pyrimidin-4-yl)-2-methylphenyl)ethyl)-1,2,4-oxadiazole-5-carboxamide]	9580 nM
0.79 nM	C[C@@H](NC(=O)c1nc(C(C)(C)C)no1)c1ccc(-c2ncnc3[nH]c(-c4ccc(N5CCN(CC6CCN(c7ccc(N8CCC(=O)NC8=O)cc7)CC6)CC5)cn4)cc23)cc1F [Example 154, (R)-3-(tert-butyl)-N-(1-(4-(6-(5-(4-((1-(4-(2,4-dioxotetrahydropyrimidin-1(2H)-yl)phenyl)piperidin-4-yl)methyl)piperazin-1-yl)pyridin-2-yl)-7H-pyrrolo[2,3-d]pyrimidin-4-yl)-2-fluorophenyl)ethyl)-1,2,4-oxadiazole-5-carboxamide]	> 10000 nM
2.43 nM	CC(C)(C)c1nc(C(=O)N[C@@H]2CCc3cc(-c4ncnc5[nH]c(-c6ccc(N7CCN(CC8CCN(c9ccc(N%10CCC(=O)NC%10=O)cc9)CC8)CC7)cc6)cc45)ccc32)no1 [Example 156, (R)-5-(tert-butyl)-N-(5-(6-(4-(4-((1-(4-(2,4-dioxotetrahydropyrimidin-1(2H)-yl)phenyl)piperidin-4-yl)methyl)piperazin-1-yl)phenyl)-7H-pyrrolo[2,3-d]pyrimidin-4-yl)-2,3-dihydro-1H-inden-1-yl)-1,2,4-oxadiazole-3-carboxamide]	> 10000 nM
1.04 nM	Cc1cc(-c2ncnc3[nH]c(-c4ccc(C5CN(CC6CCN(c7ccc(N8CCC(=O)NC8=O)cc7)CC6)C5)cc4)cc23)ccc1[C@@H](C)NC(=O)c1nc(C(C)(C)C)no1 [Example 157, (R)-3-(tert-butyl)-N-(1-(4-(6-(4-(1-((1-(4-(2,4-dioxotetrahydropyrimidin-1(2H)-yl)phenyl)piperidin-4-yl)methyl)azetidin-3-yl)phenyl)-7H-pyrrolo[2,3-d]pyrimidin-4-yl)-2-methylphenyl)ethyl)-1,2,4-oxadiazole-5-carboxamide]	> 10000 nM
1.12 nM	Cc1cc(-c2ncnc3[nH]c(-c4ccc(C5CCN(CC6CCN(c7ccc(N8CCC(=O)NC8=O)cc7)CC6)C5)cc4)cc23)ccc1[C@@H](C)NC(=O)c1nc(C(C)(C)C)no1 (stereo partly drawn) [Example 158, 3-(tert-butyl)-N-((1R)-1-(4-(6-(4-(1-((1-(4-(2,4-dioxotetrahydropyrimidin-1(2H)-yl)phenyl)piperidin-4-yl)methyl)pyrrolidin-3-yl)phenyl)-7H-pyrrolo[2,3-d]pyrimidin-4-yl)-2-methylphenyl)ethyl)-1,2,4-oxadiazole-5-carboxamide]	4040 nM
0.93 nM	Cc1cc(-c2ncnc3[nH]c(-c4ccc(C5=CCN(CC6CCN(c7ccc(N8CCC(=O)NC8=O)cc7)CC6)C5)nc4)cc23)ccc1[C@@H](C)NC(=O)c1nc(C(C)(C)C)no1 [Example 159, (R)-3-(tert-butyl)-N-(1-(4-(6-(6-(1-((1-(4-(2,4-dioxotetrahydropyrimidin-1(2H)-yl)phenyl)piperidin-4-yl)methyl)-2,5-dihydro-1H-pyrrol-3-yl)pyridin-3-yl)-7H-pyrrolo[2,3-d]pyrimidin-4-yl)-2-methylphenyl)ethyl)-1,2,4-oxadiazole-5-carboxamide]	> 10000 nM
1.25 nM	Cc1cc(-c2ncnc3[nH]c(-c4cnc(N5CCN(CC6CCN(c7ccc(N8CCC(=O)NC8=O)cc7)CC6)CC5)nc4)cc23)ccc1[C@@H](C)NC(=O)c1nc(C(C)(C)C)no1 [Example 160, (R)-3-(tert-butyl)-N-(1-(4-(6-(2-(4-((1-(4-(2,4-dioxotetrahydropyrimidin-1(2H)-yl)phenyl)piperidin-4-yl)methyl)piperazin-1-yl)pyrimidin-5-yl)-7H-pyrrolo[2,3-d]pyrimidin-4-yl)-2-methylphenyl)ethyl)-1,2,4-oxadiazole-5-carboxamide]	> 10000 nM
0.92 nM	Cc1cc(-c2ncnc3[nH]c(-c4c(C)nn(C5CCN(C(=O)CNCC6CCN(c7ccc(N8CCC(=O)NC8=O)cc7)CC6)CC5)c4C)cc23)ccc1[C@@H](C)NC(=O)c1nc(C(C)(C)C)no1 [Example 161, (R)-3-(tert-butyl)-N-(1-(4-(6-(1-(1-(((1-(4-(2,4-dioxotetrahydropyrimidin-1(2H)-yl)phenyl)piperidin-4-yl)methyl)glycyl)piperidin-4-yl)-3,5-dimethyl-1H-pyrazol-4-yl)-7H-pyrrolo[2,3-d]pyrimidin-4-yl)-2-methylphenyl)ethyl)-1,2,4-oxadiazole-5-carboxamide]	3550 nM

Source: patent US20230167118A1, “DEGRADATION OF BRUTON'S TYROSINE KINASE (BTK) BY CONJUGATION OF BTK INIDBITORS WITH E3 LIGASE LIGAND AND METHODS OF USE” (BEIGENE, LTD., priority 2020, published 2023)
